# How the values were obtained:
# 5-FU treated mice = assay: Recovery from repeated 5-FU administration; type: in vivo, mouse
# Procedure: To test if p300/-catenin antagonists can also promote multi-dosing chemotherapeutic drug induced bone marrow inhibition, 4 rounds of 5-FU (two doses in each round) administration were given to CD45.2 female mice. 150 mg/kg of 5-FU was given to mice for the first three rounds and then 200 mg/kg for the last round (4th round). The second dose of 5-FU was 6 days apart from the first dose of 5-FU in each round. Either DMSO or YH250 (2 mg/kg) were given to animals 24 hours after the first dose of 5-FU in each round of 5-FU administration (FIG. 25A). Animal body weight, survival rate and blood count changes were monitored. […] After each round of 5-FU administration, animals were allowed to recover to normal blood count before next round of 5-FU administration. FIG. 25E depicts the blood count at nadir points after each round of 5-FU administration.
# bone marrow cells [1] = assay: Brief (4 h) incubation of bone marrow cells, 14 days culture, FACS; type: cell-based, mouse
# Procedure: Bone marrow cells were treated with DMSO or YH250 (0.5 μM) for 4 hours, then the compound was removed and the cells cultured in QBSF-58 medium for 14 days with 10 ng/ml of SCF, TPO, Flt3 ligand, and IL-6. At the end of culture, cells were recovered and analyzed for LSK cells with FACS.
# In a further study, female CD45.1 mice bone marrow cells were incubated with DMSO, or YH249 (0.5 μM) or YH250 (0.5 μM) for 4 hrs in QBSF-58 media, then 2×10^4 cells were plated in QBSF-58 medium containing SCF, TPO, Flt3 and IL-6 (10 ng/ml for each) for 14 days. Cells were then recovered from plate for FACS analysis. […] Correspondingly, there are higher LSK cells (52%, 60% and 70% respectively for DMSO, YH249 and YH250). From every 10,000 analyzed cells, LSKCD34negt cell numbers are 437, 663 and 2051 for DMSO, YH249 and YH250 treated cells, respectively.
# cord blood cells = assay: Cord blood cells incubated 24 hrs then BMT to transgenic NSG mice; type: in vivo, human; conditions: 10 μM 24 hrs in 4GF or 6GF medium; day 28th post BMT
# Procedure: To examine p300/β-catenin antagonist YH250 effects on cord blood HSC in BMT, cord blood cells were incubated with 4GF or 6GF medium and 10 μM of YH250 for 24 hrs, then cells were recovered and transplanted to irradiated NOD.Cg-Prkdc^scidIL1rg^tmlwjlTg(CMV-[…], CSF2, KITLG)1Eva, MloySzJ; JAX stock#013062) mice, these are transgenic NSG mice expressing human interleukin-3, human GM-CSF and human stem cell factor. Blood were collected at day 28th post BMT to determine engraftment.
# [2] = tested on: bone marrow stem/progenitor cells; assay: HSPC proliferation in 5-FU treated animals; type: in vivo, mouse; conditions: 5-FU 150 mg/kg, YH250 2 mg/kg 24 hours later, analysed one day later
# Procedure: p300/-catenin antagonists, such as YH250, were also tested for the ability to stimulate bone marrow stem/progenitor cell proliferation in chemotherapeutic drug-treated (e.g., 5-FU) animals. As depicted in FIG. 24A, animals were given PBS or 5-FU (150 mg/kg). 24 hours later, either DMSO or YH250 (2 mg/kg) were administrated to animals. Then, bone marrow cells were isolated one day later for FACS analysis.
# bone marrow cells [3] = assay: Bone marrow CFC recovery after 7Gy radiation; type: in vivo, mouse
# Procedure: According to particular aspects of the present invention, if YH250 can stimulate 7Gy irradiated animal HSPC proliferation/expansion, the compound may accelerate the recovery of the hematopoiesis from radiation damage. We first tested if YH250 treatment accelerates bone marrow cell CFC activities, the more differentiated cells. After 7Gy radiation and either DMSO or YH250 administration 24 hours post radiation, bone marrow cells were recovered at different time points (day 6, 11, 13, 15 post treatment) and CFC assays were performed (FIG. 19A). […] Consistent with increased colony numbers, there are more cells from plates of YH250 treated cells.
# cord blood CD34+ cells = assay: Cord blood CD34+ cell culture 7 days, FACS surface marker analysis; type: cell-based, human; conditions: 7th day
# Procedure: A method to analyze expanded cord blood CD34+ cell phenotype using FACS is established. In this study, cord blood cells were cultured in vitro with 4GF and different concentrations of p300/-catenin antagonist such as YH250. Because the limited CD34+ cells in culture system, GFP transgenic mouse bone marrow cells were isolated and added to the cells as carrier cells in FACS analysis. The bright GFP positive carrier cells were gated out and the targeting cord blood cells were further analyzed for their surface marker. FIG. 13A depicts carrier cell only in FACS analysis.
# Cord blood CD34+ cells were cultured in medium containing either 4GF or 6GF with different concentration of p300/-catenin antagonist YH250. At 7th day in culture, cells were recovered and mixed with carrier cells from GFP mice bone marrow. Antibodies to human HSC surface protein are added to the cells and human CD45posit cells were gated for FACS analysis. […] In 6GF medium, 10 μM of YH250 also gives more human CD45+CD34+ cells compared with DMSO (73.3% vs 66.2%, Table 5).
# [4] = especially last three rounds of 5-FU
# [5] = 0.5 μM 4 hours, 14 days in QBSF-58 with SCF, TPO, Flt3 ligand, IL-6
smiles,measurement,setting,value
COc1cccc(CNC(=O)N2C3CN(Cc4cc(Cl)cc(Cl)c4N(C)C)C(=O)[C@H](Cc4ccc(O)cc4)N3C(=O)CN2C)c1OC (stereo partly drawn) [YH250],RBC at nadir points,5-FU treated mice; 4 rounds of 5-FU,no significant effect on RBC
same,survival,"5-FU treated mice; 5-FU 200 mg/kg (4th round), 60% died in DMSO group, p=0.04",all animals survived
same,WBC at nadir point,5-FU treated mice; [4],significantly higher
same,platelet at nadir point,5-FU treated mice; [4],significantly higher
same,body weight,"5-FU treated mice; from second round of 5-FU administration, 2 mg/kg each round",less weight drop
same,percentage of LSK cells vs DMSO,bone marrow cells [1]; [5],significantly higher
same,percentage of Lineage negative cells vs DMSO,bone marrow cells [1]; [5],significantly higher
same,lineage negative cell,"bone marrow cells [1]; 0.5 μM 4 hrs, 14 days culture, DMSO 9%",33%
same,LSK cells,"bone marrow cells [1]; 0.5 μM 4 hrs, 14 days culture, DMSO 52%",70%
same,LSKCD34negt cell numbers,"bone marrow cells [1]; from every 10,000 analyzed cells, 0.5 μM 4 hrs, 14 days culture, DMSO 437",2051
same,human CD34posit cells in blood vs DMSO treated cells,cord blood cells,more human CD34posit cells
same,Lin-CD48-CD150+ cell numbers vs DMSO,[2],significantly higher
same,lineage negative cell numbers vs DMSO,[2],significantly higher
same,cells from CFC plates,bone marrow cells [3]; 7Gy radiation,more cells
same,colonies in CFC assay vs DMSO treated mice,bone marrow cells [3]; 14th day post 7Gy radiation,significantly more colonies
same,%34 + 38-45RA-33-,"cord blood CD34+ cells; 4GF (SF6T), 1 μM, DMSO 3.9",3.5%
same,%33-45RA-,"cord blood CD34+ cells; 4GF (SF6T), 1 μM, DMSO 4.5",5.0%
same,% CD3+,"cord blood CD34+ cells; 4GF (SF6T), 1 μM, DMSO 12.2",16.0%
same,%34 + 38-,"cord blood CD34+ cells; 4GF (SF6T), 1 μM, DMSO 64.5",51.7%
same,%34+,"cord blood CD34+ cells; 4GF (SF6T), 1 μM, DMSO 79.1",64.1%
same,%33-45RA-,"cord blood CD34+ cells; 4GF (SF6T), 3 μM",5.8%
same,%34+,"cord blood CD34+ cells; 4GF (SF6T), 3 μM",84%
same,%34 + 38-,"cord blood CD34+ cells; 4GF (SF6T), 3 μM",65.5%
same,%34 + 38-45RA-33-,"cord blood CD34+ cells; 4GF (SF6T), 3 μM",5.2%
same,% CD3+,"cord blood CD34+ cells; 4GF (SF6T), 3 μM",9.5%
same,%33-45RA-,"cord blood CD34+ cells; 4GF (SF6T), 10 μM",4.9%
same,%34+,"cord blood CD34+ cells; 4GF (SF6T), 10 μM",89.1%
same,%34 + 38-,"cord blood CD34+ cells; 4GF (SF6T), 10 μM",65.3%
same,%34 + 38-45RA-33-,"cord blood CD34+ cells; 4GF (SF6T), 10 μM",4.5%
same,% CD3+,"cord blood CD34+ cells; 4GF (SF6T), 10 μM",4.5%
same,%34 + 38-45RA-33-,"cord blood CD34+ cells; 6GF (SF6T3G), 1 μM, DMSO 2.3",4.4%
same,%33-45RA-,"cord blood CD34+ cells; 6GF (SF6T3G), 1 μM, DMSO 2.5",5.8%
same,% CD3+,"cord blood CD34+ cells; 6GF (SF6T3G), 1 μM, DMSO 22.6",20.1%
same,%34 + 38-,"cord blood CD34+ cells; 6GF (SF6T3G), 1 μM, DMSO 56.4",53.9%
same,%34+,"cord blood CD34+ cells; 6GF (SF6T3G), 1 μM, DMSO 66.2",62%
same,%33-45RA-,"cord blood CD34+ cells; 6GF (SF6T3G), 3 μM",5.6%
same,%34+,"cord blood CD34+ cells; 6GF (SF6T3G), 3 μM",66.1%
same,%34 + 38-,"cord blood CD34+ cells; 6GF (SF6T3G), 3 μM",55.8%
same,%34 + 38-45RA-33-,"cord blood CD34+ cells; 6GF (SF6T3G), 3 μM",4.2%
same,% CD3+,"cord blood CD34+ cells; 6GF (SF6T3G), 3 μM",18.8%
same,%33-45RA-,"cord blood CD34+ cells; 6GF (SF6T3G), 10 μM",6.1%
same,%34+,"cord blood CD34+ cells; 6GF (SF6T3G), 10 μM",73.3%
same,%34 + 38-,"cord blood CD34+ cells; 6GF (SF6T3G), 10 μM",57.9%
same,%34 + 38-45RA-33-,"cord blood CD34+ cells; 6GF (SF6T3G), 10 μM",4.2%
same,% CD3+,"cord blood CD34+ cells; 6GF (SF6T3G), 10 μM",13.8%

# Source: US20190125753A1, “COMPOUNDS AND METHODS FOR INCREASING HEMATOPOIESIS” (University of Southern California, priority 2016, published 2019)
